Laboratory results taken from the Kinase Knowledgebase extract (Sharma et al. 2016).
Values joined by “and” are separate entries in the source; they are usually repeats but may differ in a detail not shown here. Equal values may be shown once.

Tests used:
PIK3CA (human) [1] = molecular target: PIK3CA (human) (UniProt P42336); experiment: Enzyme Assay
[2] = molecular target: PIK3CA (human), P42336 [I800L]; experiment: Enzyme Assay
PIK3CB (Human) [3] = molecular target: PIK3CB (Human) (UniProt P42338); experiment: Enzyme Assay
PIK3CD (Human) [4] = molecular target: PIK3CD (Human) (UniProt O00329); experiment: Enzyme Assay
PIK3CG (human) = PIK3CG (human) (UniProt P48736); experiment: Enzyme Assay
PIK3CA (human) [5] = molecular target: PIK3CA (human) (UniProt P42336); experiment: Cell-Based Assay; conditions: jurkat
PIK3CB (Human) [6] = molecular target: PIK3CB (Human) (UniProt P42338); experiment: Cell-Based Assay; conditions: jurkat
PIK3CD (Human) [7] = molecular target: PIK3CD (Human) (UniProt O00329); experiment: Cell-Based Assay; conditions: jurkat
PIK3CB (Human) [8] = molecular target: PIK3CB (Human) (UniProt P42338); experiment: Cell-Based Assay; conditions: jurkat; remark: listed apart in the source

Chain of PIK3CD (Human) (O00329 whole entry, looked up): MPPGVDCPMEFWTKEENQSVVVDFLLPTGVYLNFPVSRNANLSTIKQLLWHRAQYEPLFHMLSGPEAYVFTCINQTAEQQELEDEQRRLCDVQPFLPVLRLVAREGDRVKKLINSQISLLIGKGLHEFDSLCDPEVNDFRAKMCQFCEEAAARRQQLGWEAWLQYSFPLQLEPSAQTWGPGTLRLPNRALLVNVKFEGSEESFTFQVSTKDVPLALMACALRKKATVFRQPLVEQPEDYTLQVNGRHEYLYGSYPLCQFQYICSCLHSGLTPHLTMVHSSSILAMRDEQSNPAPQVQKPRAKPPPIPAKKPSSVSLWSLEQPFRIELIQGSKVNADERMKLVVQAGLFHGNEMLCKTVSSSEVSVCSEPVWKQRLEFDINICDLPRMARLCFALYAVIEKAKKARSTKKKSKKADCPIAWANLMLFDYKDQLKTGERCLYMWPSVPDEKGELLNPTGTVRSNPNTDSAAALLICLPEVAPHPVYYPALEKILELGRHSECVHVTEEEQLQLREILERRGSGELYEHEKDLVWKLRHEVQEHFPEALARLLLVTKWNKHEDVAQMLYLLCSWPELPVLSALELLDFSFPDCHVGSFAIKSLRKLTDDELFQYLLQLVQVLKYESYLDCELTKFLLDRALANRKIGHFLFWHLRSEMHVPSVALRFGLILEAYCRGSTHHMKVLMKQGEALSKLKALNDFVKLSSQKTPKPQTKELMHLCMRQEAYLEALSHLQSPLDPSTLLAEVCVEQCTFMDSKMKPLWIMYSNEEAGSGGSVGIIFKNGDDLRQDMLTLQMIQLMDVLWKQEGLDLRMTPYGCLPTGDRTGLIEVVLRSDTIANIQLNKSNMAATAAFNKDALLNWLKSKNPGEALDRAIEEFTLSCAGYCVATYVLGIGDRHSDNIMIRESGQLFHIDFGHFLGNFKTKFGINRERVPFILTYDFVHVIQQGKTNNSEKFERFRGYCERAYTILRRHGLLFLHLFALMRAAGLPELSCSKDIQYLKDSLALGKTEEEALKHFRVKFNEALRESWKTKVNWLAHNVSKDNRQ
Chain of PIK3CB (Human) (P42338 whole entry, looked up): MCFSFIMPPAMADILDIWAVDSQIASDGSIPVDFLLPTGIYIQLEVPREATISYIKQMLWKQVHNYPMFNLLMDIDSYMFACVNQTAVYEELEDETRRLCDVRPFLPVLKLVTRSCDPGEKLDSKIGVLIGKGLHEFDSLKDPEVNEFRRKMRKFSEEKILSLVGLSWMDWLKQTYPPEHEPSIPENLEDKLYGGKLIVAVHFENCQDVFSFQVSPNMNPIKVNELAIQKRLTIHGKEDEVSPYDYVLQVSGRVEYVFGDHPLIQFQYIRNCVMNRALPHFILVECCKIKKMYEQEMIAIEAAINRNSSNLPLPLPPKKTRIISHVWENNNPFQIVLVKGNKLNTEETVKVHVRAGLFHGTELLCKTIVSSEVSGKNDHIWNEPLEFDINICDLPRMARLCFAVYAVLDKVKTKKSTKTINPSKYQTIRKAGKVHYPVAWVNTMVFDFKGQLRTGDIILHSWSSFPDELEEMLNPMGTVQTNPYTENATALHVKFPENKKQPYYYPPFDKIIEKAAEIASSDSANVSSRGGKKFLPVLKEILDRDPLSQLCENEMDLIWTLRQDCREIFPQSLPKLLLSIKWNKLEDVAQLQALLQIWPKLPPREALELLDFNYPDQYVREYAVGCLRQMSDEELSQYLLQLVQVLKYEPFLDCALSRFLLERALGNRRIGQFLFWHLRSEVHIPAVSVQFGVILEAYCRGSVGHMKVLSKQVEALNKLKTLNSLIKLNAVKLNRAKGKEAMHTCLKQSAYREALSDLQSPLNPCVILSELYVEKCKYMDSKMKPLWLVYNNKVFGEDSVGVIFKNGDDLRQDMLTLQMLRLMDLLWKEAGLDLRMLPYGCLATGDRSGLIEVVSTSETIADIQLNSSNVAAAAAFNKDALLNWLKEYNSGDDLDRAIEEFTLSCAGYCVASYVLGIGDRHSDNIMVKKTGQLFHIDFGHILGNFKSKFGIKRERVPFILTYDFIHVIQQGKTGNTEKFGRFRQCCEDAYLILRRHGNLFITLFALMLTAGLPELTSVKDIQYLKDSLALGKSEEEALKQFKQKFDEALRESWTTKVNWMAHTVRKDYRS
Chain of PIK3CA (human) (P42336 whole entry, looked up): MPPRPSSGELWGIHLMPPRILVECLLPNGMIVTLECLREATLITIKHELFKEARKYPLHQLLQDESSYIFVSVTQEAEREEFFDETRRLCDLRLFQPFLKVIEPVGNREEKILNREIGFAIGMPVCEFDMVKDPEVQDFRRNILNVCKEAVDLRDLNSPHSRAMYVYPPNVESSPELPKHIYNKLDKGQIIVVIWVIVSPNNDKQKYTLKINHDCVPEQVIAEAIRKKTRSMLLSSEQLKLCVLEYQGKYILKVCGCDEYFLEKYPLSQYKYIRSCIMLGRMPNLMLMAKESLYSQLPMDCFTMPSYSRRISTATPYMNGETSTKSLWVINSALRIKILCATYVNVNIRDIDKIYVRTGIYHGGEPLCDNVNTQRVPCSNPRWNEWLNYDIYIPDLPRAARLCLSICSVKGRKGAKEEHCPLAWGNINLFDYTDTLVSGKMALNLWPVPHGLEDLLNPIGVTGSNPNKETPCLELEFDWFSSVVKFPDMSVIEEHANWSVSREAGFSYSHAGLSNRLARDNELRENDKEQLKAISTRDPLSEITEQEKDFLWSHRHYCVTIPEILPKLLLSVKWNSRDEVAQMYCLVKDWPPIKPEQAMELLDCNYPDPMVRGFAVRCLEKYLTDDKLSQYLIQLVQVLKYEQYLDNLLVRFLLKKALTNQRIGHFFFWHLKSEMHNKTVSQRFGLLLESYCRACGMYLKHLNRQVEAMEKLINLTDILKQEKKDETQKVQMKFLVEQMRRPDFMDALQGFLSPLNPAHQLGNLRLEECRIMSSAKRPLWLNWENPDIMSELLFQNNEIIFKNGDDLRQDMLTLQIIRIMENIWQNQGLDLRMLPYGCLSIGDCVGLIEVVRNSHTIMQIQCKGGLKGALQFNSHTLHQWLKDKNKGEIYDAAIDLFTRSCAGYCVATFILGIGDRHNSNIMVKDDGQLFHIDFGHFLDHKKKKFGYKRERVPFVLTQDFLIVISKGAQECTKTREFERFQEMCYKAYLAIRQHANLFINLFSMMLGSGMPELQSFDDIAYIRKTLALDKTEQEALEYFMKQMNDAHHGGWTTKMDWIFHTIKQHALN
Chain of PIK3CA (human), P42336 [I800L] (P42336 whole entry I800L, looked up): as the sequence (P42336 whole entry, looked up) above, with I800L counted along it
Chain of PIK3CG (human) (P48736 whole entry, looked up): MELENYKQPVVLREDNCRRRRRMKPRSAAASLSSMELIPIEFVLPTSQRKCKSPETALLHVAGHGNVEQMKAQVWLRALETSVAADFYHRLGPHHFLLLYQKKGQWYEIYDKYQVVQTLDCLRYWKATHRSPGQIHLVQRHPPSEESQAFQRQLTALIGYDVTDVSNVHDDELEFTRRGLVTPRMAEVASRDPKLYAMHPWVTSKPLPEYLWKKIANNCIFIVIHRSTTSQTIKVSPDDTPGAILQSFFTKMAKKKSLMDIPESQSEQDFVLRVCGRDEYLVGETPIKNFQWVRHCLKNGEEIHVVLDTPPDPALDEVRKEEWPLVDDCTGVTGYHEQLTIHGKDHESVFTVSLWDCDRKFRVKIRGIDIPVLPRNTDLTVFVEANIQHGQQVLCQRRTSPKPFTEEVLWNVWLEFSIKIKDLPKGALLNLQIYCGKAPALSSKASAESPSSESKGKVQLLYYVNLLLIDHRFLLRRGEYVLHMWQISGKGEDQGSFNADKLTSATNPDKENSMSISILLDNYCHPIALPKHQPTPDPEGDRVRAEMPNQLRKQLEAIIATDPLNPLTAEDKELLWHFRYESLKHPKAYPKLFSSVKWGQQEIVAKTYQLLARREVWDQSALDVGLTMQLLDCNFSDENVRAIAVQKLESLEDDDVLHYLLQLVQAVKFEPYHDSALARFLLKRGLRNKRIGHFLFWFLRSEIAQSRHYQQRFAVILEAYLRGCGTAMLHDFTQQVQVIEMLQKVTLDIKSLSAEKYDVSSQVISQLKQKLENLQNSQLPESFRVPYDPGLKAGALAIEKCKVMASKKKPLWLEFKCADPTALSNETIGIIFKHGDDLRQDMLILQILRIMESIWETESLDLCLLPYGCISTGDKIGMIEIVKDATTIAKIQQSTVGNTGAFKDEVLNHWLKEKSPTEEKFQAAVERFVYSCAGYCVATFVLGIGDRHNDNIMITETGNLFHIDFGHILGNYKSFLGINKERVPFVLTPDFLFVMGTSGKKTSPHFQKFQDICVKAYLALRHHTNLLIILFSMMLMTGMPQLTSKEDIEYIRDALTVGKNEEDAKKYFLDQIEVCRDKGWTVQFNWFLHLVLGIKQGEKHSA

IC50 (PIK3CA (human) [1]): 0.886 µM
Kd (PIK3CA (human) [1]): 0.14 µM
Kd [2]: 0.19 µM
IC50 (PIK3CB (Human) [3]): > 12 µM
IC50 (PIK3CD (Human) [4]): 1.29 µM
IC50 (PIK3CG (human)): 1.87 µM
IC50 (PIK3CA (human) [5]): 1.2 µM
IC50 (PIK3CB (Human) [6]): 10 µM
IC50 (PIK3CD (Human) [7]): 3.3 µM and 0.98 µM
IC50 (PIK3CB (Human) [8]): 9.2 µM
Structure (SMILES): COC(=O)Nc1ccc(-c2nc(N3CCOCC3)c3cnn(C4CCN(C(=O)OC)CC4)c3n2)cc1
